# Reference: ChEMBL document CHEMBL1201862, “PubChem BioAssay data set” (2004)
#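 In this assay, cells in 96-well plates receive the compound at five concentrations for 48 hours. Endpoints are linearly interpolated between the surrounding concentrations. GI50 is the concentration that inhibits growth by half.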 Activity calls are given as the source filed them. Rule as the data show it: active = GI50 up to about 1.1 µM and inactive = higher.
# Columns and labels:
# Assay in all cases: NCI anticancer screen, dose series, 48 h
# [1] = test system: CCRF-CEM
# [2] = test system: MOLT-4
# [3] = test system: U-251
# [4] = test system: SK-MEL-28
# [5] = test system: LOX IMVI
# [6] = test system: HCT-15
# [7] = test system: CAKI-1
# [8] = test system: DLD-1
# [9] = test system: SN12C
# [10] = test system: HCT-116
# [11] = test system: HOP-92
# [12] = test system: OVCAR-5
# [13] = test system: UACC-62
# [14] = test system: SF-268
# [15] = test system: 786-0
# [16] = test system: NCI-H460
# [17] = test system: NCI-H226
# [18] = test system: T47D
# [19] = test system: Hs-578T
# [20] = test system: SR
Structure (SMILES),GI50 [1],GI50 [2],GI50 [3],GI50 [4],GI50 [5],GI50 [6] [µM],GI50 [7],GI50 [8],GI50 [9],GI50 [10],GI50 [11],GI50 [12],GI50 [13],GI50 [14],GI50 [15],GI50 [16],GI50 [17],GI50 [18],GI50 [19],GI50 [20]
O=C(N/C(=C\c1ccc(/C=C(\NC(=O)c2ccccc2)c2nc3cc([N+](=O)[O-])ccc3[nH]2)cc1)c1nc2cc([N+](=O)[O-])ccc2[nH]1)c1ccccc1,20.8 µM (inactive),11 µM (inactive),54.6 µM (inactive),14.8 µM (inactive),28.8 µM (inactive),49.8,> 100 µM (inactive),43.8 µM (inactive),71.3 µM (inactive),28.1 µM (inactive),35.2 µM (inactive),> 100 µM (inactive),15.4 µM (inactive),22.1 µM (inactive),42.4 µM (inactive),–,–,–,–,–
CCc1cccc(C(C)C)c1N1C(=O)C(=O)C(c2nc3ccccc3s2)C(=O)C1=O,11.3 µM (inactive),12.6 µM (inactive),> 48.3 µM (inactive),> 50 µM (inactive),> 46.2 µM (inactive),29.4,> 50 µM (inactive),20.5 µM (inactive),> 50 µM (inactive),20 µM (inactive),> 50 µM (inactive),> 50 µM (inactive),> 50 µM (inactive),> 50 µM (inactive),> 50 µM (inactive),> 50 µM (inactive),–,–,–,–
CC1Cc2c(cc(N)nc2Br)NC1=O (centres undefined),> 100 µM (inactive),43.1 µM (inactive),> 100 µM (inactive),> 100 µM (inactive),> 100 µM (inactive),> 100,> 100 µM (inactive),–,> 100 µM (inactive),64.6 µM (inactive),45.9 µM (inactive),> 100 µM (inactive),> 100 µM (inactive),> 100 µM (inactive),> 100 µM (inactive),> 100 µM (inactive),> 100 µM (inactive),42.7 µM (inactive),> 100 µM (inactive),84.1 µM (inactive)
O=C(NNCC(F)(F)F)c1ccncc1,> 100 µM (inactive),> 100 µM (inactive),> 100 µM (inactive),> 100 µM (inactive),> 100 µM (inactive),> 100,> 100 µM (inactive),–,> 100 µM (inactive),> 100 µM (inactive),> 100 µM (inactive),> 100 µM (inactive),> 100 µM (inactive),> 100 µM (inactive),> 100 µM (inactive),> 100 µM (inactive),> 100 µM (inactive),> 100 µM (inactive),> 100 µM (inactive),> 100 µM (inactive)
CCCCCCCSCC(O)COC(c1ccccc1)(c1ccccc1)c1ccccc1 (centres undefined),29.7 µM (inactive),28.4 µM (inactive),50.9 µM (inactive),> 100 µM (inactive),36.1 µM (inactive),41.6,60.4 µM (inactive),–,37.7 µM (inactive),40.6 µM (inactive),26.7 µM (inactive),34.8 µM (inactive),65.8 µM (inactive),20.3 µM (inactive),48.8 µM (inactive),30.1 µM (inactive),18.1 µM (inactive),32.7 µM (inactive),3.52 µM (inactive),22.1 µM (inactive)
CC(C)c1ccc(C(O)(C(=O)O)c2ccc(C(C)C)cc2)cc1,49.4 µM (inactive),48.8 µM (inactive),18.2 µM (inactive),64.9 µM (inactive),68.5 µM (inactive),46.6,45.8 µM (inactive),–,46 µM (inactive),36.6 µM (inactive),31.8 µM (inactive),> 100 µM (inactive),44.6 µM (inactive),33.7 µM (inactive),51.2 µM (inactive),47.2 µM (inactive),24.5 µM (inactive),43.2 µM (inactive),26.3 µM (inactive),60.8 µM (inactive)
CCOC(=O)C(C(=O)OCC)=C1NC2(c3ccccc3Nc3ccc(C)cc32)C(C(=O)OC)S1 (centres undefined),15.1 µM (inactive),5.58 µM (inactive),23.7 µM (inactive),> 100 µM (inactive),33.5 µM (inactive),18.7,8.69 µM (inactive),–,4.11 µM (inactive),9.64 µM (inactive),4.92 µM (inactive),20.9 µM (inactive),20.8 µM (inactive),12.3 µM (inactive),22.9 µM (inactive),12.1 µM (inactive),29.9 µM (inactive),3.96 µM (inactive),10.3 µM (inactive),6.34 µM (inactive)
c1cnc2c(c1)Nc1cnncc1S2,> 100 µM (inactive),> 100 µM (inactive),> 100 µM (inactive),> 100 µM (inactive),> 100 µM (inactive),> 100,24.1 µM (inactive),–,> 100 µM (inactive),> 100 µM (inactive),86.3 µM (inactive),> 100 µM (inactive),77.6 µM (inactive),> 100 µM (inactive),> 100 µM (inactive),> 100 µM (inactive),86.9 µM (inactive),> 100 µM (inactive),> 100 µM (inactive),53.3 µM (inactive)
COCn1c(=O)n(C)c(=O)c2c1nc1c(c(=O)n(C)c(=O)n1COC)[n+]2[O-],5.37 µM (inactive),4.19 µM (inactive),5.85 µM (inactive),35.9 µM (inactive),6.68 µM (inactive),4.22,20.3 µM (inactive),–,7.08 µM (inactive),10.6 µM (inactive),3.61 µM (inactive),25.1 µM (inactive),7.01 µM (inactive),6.65 µM (inactive),18.4 µM (inactive),3.15 µM (inactive),10.1 µM (inactive),3.13 µM (inactive),8.55 µM (inactive),3.77 µM (inactive)
O=C(O)CCNc1ccccc1C(=O)O,> 100 µM (inactive),> 100 µM (inactive),> 100 µM (inactive),> 100 µM (inactive),> 100 µM (inactive),> 100,> 100 µM (inactive),–,> 100 µM (inactive),> 100 µM (inactive),> 100 µM (inactive),> 100 µM (inactive),> 100 µM (inactive),> 100 µM (inactive),> 100 µM (inactive),> 100 µM (inactive),> 100 µM (inactive),> 100 µM (inactive),> 100 µM (inactive),> 100 µM (inactive)
Cc1c(/N=N/c2ccc([N+](=O)[O-])cc2)nc2scc(-c3ccccc3)n12,21.7 µM (inactive),19.6 µM (inactive),> 100 µM (inactive),> 100 µM (inactive),57.1 µM (inactive),31.6,> 73.3 µM (inactive),–,> 100 µM (inactive),> 100 µM (inactive),> 100 µM (inactive),> 66.7 µM (inactive),> 65.6 µM (inactive),> 82.4 µM (inactive),> 100 µM (inactive),71.9 µM (inactive),> 100 µM (inactive),> 70.8 µM (inactive),> 78.7 µM (inactive),19.5 µM (inactive)
O=C(Cc1nc2ccc([N+](=O)[O-])cc2nc1O)C(=O)Nc1cc(Cl)c(Cl)cc1Cl,> 100 µM (inactive),51.4 µM (inactive),> 100 µM (inactive),> 100 µM (inactive),69 µM (inactive),> 100,> 100 µM (inactive),–,> 100 µM (inactive),> 100 µM (inactive),> 100 µM (inactive),> 100 µM (inactive),> 100 µM (inactive),> 100 µM (inactive),> 100 µM (inactive),> 100 µM (inactive),> 100 µM (inactive),> 100 µM (inactive),> 100 µM (inactive),41.8 µM (inactive)
COc1cccc(NC(=O)/C(CC(=O)CC(c2ccccc2)c2c(O)c3ccccc3oc2=O)=N\NC(C)(C)C)c1OC (centres undefined),25.7 µM (inactive),28.7 µM (inactive),> 100 µM (inactive),> 100 µM (inactive),36.9 µM (inactive),28.4,36.1 µM (inactive),40.6 µM (inactive),–,69 µM (inactive),17.6 µM (inactive),> 100 µM (inactive),33.3 µM (inactive),> 100 µM (inactive),> 100 µM (inactive),> 100 µM (inactive),–,–,–,–
COC(OC)C1OC(CO)C(n2cc(C)c(=O)[nH]c2=O)C1O (centres undefined),> 100 µM (inactive),> 100 µM (inactive),> 100 µM (inactive),> 100 µM (inactive),> 100 µM (inactive),> 100,> 100 µM (inactive),–,> 100 µM (inactive),> 100 µM (inactive),> 100 µM (inactive),> 100 µM (inactive),> 100 µM (inactive),> 100 µM (inactive),> 100 µM (inactive),> 100 µM (inactive),> 100 µM (inactive),> 100 µM (inactive),> 100 µM (inactive),> 100 µM (inactive)
O=C1N[C@H]2C(=O)c3c(Br)sc(Br)c3[C@H]2O1,1.31 µM (inactive),2.25 µM (inactive),3.48 µM (inactive),3.41 µM (inactive),3.08 µM (inactive),1.95,4.53 µM (inactive),–,4.76 µM (inactive),2.77 µM (inactive),14.6 µM (inactive),17.7 µM (inactive),13.6 µM (inactive),4.1 µM (inactive),8.26 µM (inactive),16.8 µM (inactive),18.1 µM (inactive),14.3 µM (inactive),18.7 µM (inactive),1.87 µM (inactive)
